Results from patent US20210236507A1, “METHODS AND PHARMACEUTICAL COMPOSITIONS FOR PREVENTING RELAPSE IN A PERSON WITH AN ADDICTION USING BETA ADRENERGIC RECEPTOR ANTAGONIST AND MUSCARINIC RECEPTOR ANTAGONIST COMBINATIONS” (MAGNOLIA CNS, LLC, priority 2020, published 2021).
Entries after “also recorded” stand apart in the source; their conditions may differ. Structures can show the parent of a compound that is named as a salt. Values belong to the compound of their own block, whether it stands above or below them.

Experiments:
humans = assay: Taste and mouth paresthesia of dose forms noted in humans during development; type: in vivo, human; details: sublingual/liquid/solid dose forms
Text: The pharmaceutical compositions of the present invention, when intended for sublingual, buccal, and/or oral delivery, may benefit from taste-masking with natural and/or artificial flavors and/or sweeteners (e.g., mannitol, sucralose, monosaccharides, and disaccharides). Mouth paresthesia (numbness) can occur with propranolol HCl as a perceived adverse effect.
Alternative beta blockers may be chosen that lack these undesirable properties, such as atenolol.
Tablets are formed by compression of the powder using a mechanical tablet press. For instance tablets without coatings are prepared with composition #11 at about 70 mg each, for use as sublingual or oral dose forms. At this size of tablet an adult dose would deliver 20 mg propranolol HC and 0.5 mg scopolamine HBr. Alternatively, tablets may be produced using a triturate tablet mold (e.g., from the vendor PCCA), wherein the triturated powder is moistened with 95% ethanol and then the wells are filled with the moistened composition, extruded from the wells, and dried. The intra-oral mucosal (e.g., sublingual) tablets dissolve rapidly under the tongue, for instance in less than one minute (e.g., solid dose forms #13 and 14). […] Sublingual (or buccal) tablets may be preferred for rapid disintegration, dissolution, absorption and increased bioavailability via the mucosal route. A sublingual tablet of #23 weighing ca. 82 mg delivers a dose of ca. 25 mg atenolol and ca. 0.25 mg of scopolamine HBr. Tablets may also be ingested orally, although it is rational to presume that absorption will be somewhat delayed and bioavailability will be somewhat reduced with many APIs, relative to the mucosal route.

[1] = biological target: muscarinic acetylcholine receptors (all five human receptor subtypes); details: cited from earlier work

- mouth/tongue paresthesia (humans; HCl): delayed paresthesia of the tongue
- taste (humans; HCl): “acidic” and “medicine” taste
- mouth/tongue paresthesia (humans; listed as propranolol HCl, HCl): produces mouth paresthesia
- taste (humans; listed as propranolol HCl, HCl): “acidic” and “medicine” taste
- mouth/tongue paresthesia (humans; listed as propranolol, HCl): Paresthesia
- taste (humans; listed as propranolol, HCl): undesirable taste
Compound: CC(C)NCC(O)COc1cccc2ccccc12 (stereo not drawn) [Propranolol HCl]

Compound: CN1[C@@H]2C[C@@H](OC(=O)[C@H](CO)c3ccccc3)C[C@H]1[C@@H]1O[C@@H]12 [Scopolamine]
- Ki [1]: 0.00034 to 0.053 µM

Compound: CC(C)NCC(O)COc1ccc(CC(N)=O)cc1 (stereo not drawn) [atenolol]
- mouth/tongue paresthesia (humans): neither property was observed; also recorded: lacked these undesirable characteristics
- taste (humans): neither property was observed; also recorded: lacked these undesirable characteristics
